PMC12155096 (International Journal of Molecular Sciences, 2025)
Structures can show the parent of a compound that is named as a salt. Where two headings read alike, the source gives them in different places.

Key:
[1] = molecular target: T1, human CYP2C19 (Homo sapiens, UniProt P33261)
[2] = molecular target: Photinus pyralis (firefly) luciferase (Photinus pyralis, UniProt P08659); assay: biochemical; assay type: biochemical
[3] = molecular target: T2, human CYP2C9 (Homo sapiens, UniProt P11712)
[4] = molecular target: human CYP2D6 (Homo sapiens, UniProt P10635)
[5] = molecular target: T3, human CYP1A2 (Homo sapiens, UniProt P05177)
T3 sequence (P05177 1-516): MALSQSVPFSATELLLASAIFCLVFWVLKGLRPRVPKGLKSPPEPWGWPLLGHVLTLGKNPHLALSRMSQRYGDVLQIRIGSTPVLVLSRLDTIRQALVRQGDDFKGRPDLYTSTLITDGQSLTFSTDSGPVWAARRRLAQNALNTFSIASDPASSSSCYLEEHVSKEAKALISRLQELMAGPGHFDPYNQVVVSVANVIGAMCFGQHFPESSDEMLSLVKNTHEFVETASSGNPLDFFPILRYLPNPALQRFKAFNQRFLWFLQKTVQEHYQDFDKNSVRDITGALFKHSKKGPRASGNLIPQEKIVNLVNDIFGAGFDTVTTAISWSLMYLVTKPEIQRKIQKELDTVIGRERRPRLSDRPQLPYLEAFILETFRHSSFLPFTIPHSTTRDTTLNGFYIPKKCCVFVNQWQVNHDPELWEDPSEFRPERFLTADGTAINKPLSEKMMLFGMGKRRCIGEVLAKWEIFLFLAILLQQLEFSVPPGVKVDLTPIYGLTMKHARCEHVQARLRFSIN

[6] = molecular target: CYP3A4 (Homo sapiens, UniProt P08684)
[7] = molecular target: T2, human CYP2C9; assay: biochemical
[8] = molecular target: T1, human CYP2C19; assay: biochemical
[9] = molecular target: T3, human CYP1A2; assay: biochemical; conditions: CYP1A2 IC50
[10] = CYP2C9 IC50 (half-maximal inhibitory concentration)
[11] = CYP2C19 IC50 (half-maximal inhibitory concentration)

Sequence of CYP3A4 (P08684 whole entry): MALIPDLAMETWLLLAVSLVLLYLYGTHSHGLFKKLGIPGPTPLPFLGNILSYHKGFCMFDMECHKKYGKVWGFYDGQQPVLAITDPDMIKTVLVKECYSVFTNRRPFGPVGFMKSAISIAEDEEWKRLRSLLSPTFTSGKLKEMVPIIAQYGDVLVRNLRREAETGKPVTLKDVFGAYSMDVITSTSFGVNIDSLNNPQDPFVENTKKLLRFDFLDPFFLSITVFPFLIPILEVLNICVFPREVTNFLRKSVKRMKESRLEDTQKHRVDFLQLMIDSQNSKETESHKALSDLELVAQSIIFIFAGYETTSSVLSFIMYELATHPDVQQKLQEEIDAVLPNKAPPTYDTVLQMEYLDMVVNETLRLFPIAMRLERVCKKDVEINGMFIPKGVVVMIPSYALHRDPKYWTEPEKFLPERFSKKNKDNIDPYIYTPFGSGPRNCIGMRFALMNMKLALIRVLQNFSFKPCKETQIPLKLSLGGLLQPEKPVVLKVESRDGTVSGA
Sequence of Photinus pyralis (firefly) luciferase (P08659 whole entry): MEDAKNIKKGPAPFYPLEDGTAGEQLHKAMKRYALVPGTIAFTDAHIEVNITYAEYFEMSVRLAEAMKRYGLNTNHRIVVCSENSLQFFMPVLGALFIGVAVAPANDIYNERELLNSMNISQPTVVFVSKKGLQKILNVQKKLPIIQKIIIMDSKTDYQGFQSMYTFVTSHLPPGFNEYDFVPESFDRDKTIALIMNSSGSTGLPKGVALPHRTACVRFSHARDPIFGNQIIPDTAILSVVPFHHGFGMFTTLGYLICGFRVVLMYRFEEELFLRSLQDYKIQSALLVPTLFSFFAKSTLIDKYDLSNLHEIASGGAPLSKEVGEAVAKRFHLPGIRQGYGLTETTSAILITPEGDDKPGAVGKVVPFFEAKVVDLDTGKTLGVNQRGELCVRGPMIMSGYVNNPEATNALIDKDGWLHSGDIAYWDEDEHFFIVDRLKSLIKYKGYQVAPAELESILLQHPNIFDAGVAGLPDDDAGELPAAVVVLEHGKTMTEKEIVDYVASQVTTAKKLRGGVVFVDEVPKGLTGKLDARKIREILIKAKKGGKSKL
T2 sequence (P11712 whole entry): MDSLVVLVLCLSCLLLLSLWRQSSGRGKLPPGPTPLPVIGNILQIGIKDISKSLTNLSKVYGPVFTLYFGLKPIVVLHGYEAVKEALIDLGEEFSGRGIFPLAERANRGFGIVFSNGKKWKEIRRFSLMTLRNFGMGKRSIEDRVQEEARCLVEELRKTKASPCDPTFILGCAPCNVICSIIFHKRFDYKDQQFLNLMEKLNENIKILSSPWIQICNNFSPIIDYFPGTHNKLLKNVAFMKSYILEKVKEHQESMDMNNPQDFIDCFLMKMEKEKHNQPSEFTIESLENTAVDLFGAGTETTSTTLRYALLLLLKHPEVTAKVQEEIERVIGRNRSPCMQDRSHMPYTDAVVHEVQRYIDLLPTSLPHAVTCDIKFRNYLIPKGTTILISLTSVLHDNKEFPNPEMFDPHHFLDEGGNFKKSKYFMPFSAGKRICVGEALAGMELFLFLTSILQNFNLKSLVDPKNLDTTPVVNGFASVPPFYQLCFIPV
T1 sequence (P33261 whole entry): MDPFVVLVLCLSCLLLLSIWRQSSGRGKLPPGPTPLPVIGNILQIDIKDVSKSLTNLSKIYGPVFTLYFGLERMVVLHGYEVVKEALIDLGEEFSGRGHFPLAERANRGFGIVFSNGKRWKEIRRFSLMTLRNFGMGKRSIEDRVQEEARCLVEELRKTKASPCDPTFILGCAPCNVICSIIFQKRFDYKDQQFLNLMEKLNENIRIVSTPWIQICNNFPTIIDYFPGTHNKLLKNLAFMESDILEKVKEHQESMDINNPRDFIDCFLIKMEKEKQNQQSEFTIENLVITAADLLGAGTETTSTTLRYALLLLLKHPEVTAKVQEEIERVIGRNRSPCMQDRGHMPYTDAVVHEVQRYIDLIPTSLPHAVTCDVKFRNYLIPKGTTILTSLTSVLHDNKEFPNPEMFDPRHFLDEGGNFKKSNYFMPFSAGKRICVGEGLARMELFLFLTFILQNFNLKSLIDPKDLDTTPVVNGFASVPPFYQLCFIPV
Sequence of human CYP2D6 (P10635 whole entry): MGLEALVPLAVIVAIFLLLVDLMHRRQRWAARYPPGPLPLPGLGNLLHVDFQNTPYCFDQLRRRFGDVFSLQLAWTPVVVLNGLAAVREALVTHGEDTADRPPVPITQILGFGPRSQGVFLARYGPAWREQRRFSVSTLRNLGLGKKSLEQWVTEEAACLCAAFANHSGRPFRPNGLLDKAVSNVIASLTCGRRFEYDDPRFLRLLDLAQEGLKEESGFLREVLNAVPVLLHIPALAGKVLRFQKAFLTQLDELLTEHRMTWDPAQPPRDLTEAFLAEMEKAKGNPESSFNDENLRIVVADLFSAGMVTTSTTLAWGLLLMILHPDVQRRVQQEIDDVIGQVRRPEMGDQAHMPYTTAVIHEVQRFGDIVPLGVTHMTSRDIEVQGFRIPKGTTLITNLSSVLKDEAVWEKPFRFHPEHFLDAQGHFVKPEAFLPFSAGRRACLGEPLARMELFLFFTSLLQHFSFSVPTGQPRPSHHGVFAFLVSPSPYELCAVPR

Compound: CCCCCCCCCCCCCCCC[N+](C)(C)C.[Cl-] [Hexadecyl trimethyl ammonium chloride]
- CYP2C19 Efficacy [1]: 43.2 ± 0.0 (-68 ± 16) %
- Luciferase IC50 [2]: Inactive
- CYP2C9 IC50 [3]: Inactive
- CYP2D6 Efficacy [4]: 0.8 ± 0.05 (-93 ± 8) %
- CYP1A2 IC50 [5]: Inactive

Compound: C=CCOC(Cn1ccnc1)c1ccc(Cl)cc1Cl.O=S(=O)(O)O (centres unmarked) [Imazalil sulfate]
- CYP2C19 Efficacy (in parenthesis) [1]: 0.22 ± 0.08 (-143 ± 13) %
- IC50 [1]: 0.22 µM
- Luciferase IC50 (half-maximal inhibitory concentration) [2]: Inactive
- CYP2C9 Efficacy (in parenthesis) [3]: 0.63 ± 0.18 (-107 ± 5) %
- IC50 [3]: 0.63 µM
- CYP3A4 Efficacy (in parenthesis) [6]: 0.12 ± 0.02 (-91 ± 3) %
- IC50 [6]: 0.12 µM
- CYP2D6 Efficacy (in parenthesis) [4]: 5.1 ± 0.35 (-106 ± 4) %
- IC50 [4]: 5.1 µM

Compound: CCC(C)n1ncn(-c2ccc(N3CCN(c4ccc(OCC5COC(Cn6cncn6)(c6ccc(Cl)cc6Cl)O5)cc4)CC3)cc2)c1=O (centres unmarked) [Itraconazole]
- IC50 [7, 10]: 14 µM
- CYP2C19 Efficacy (in parenthesis) ([1]; human): 8.3 ± 4.22 (-53 ± 15) %
- Luciferase IC50 (half-maximal inhibitory concentration) [2]: Inactive
- IC50 [8, 11]: 8.3 µM
- CYP2C9 Efficacy (in parenthesis) ([3]; human): 14.05 ± 3.21 (-81 ± 13) %
- CYP2D6 IC50 (half-maximal inhibitory concentration) [4]: Inactive
- CYP1A2 IC50 (half-maximal inhibitory concentration) [5]: Inactive

Compound: Cc1ccc2nc(N)[nH]c(=O)c2c1Sc1ccncc1.Cl.Cl [Nolatrexed dihydrochloride]
- CYP2C19 Efficacy [1]: 3.3 ± 1.68 (-116 ± 1) %
- Luciferase IC50 [2]: Inactive
- CYP2C9 Efficacy [3]: 4.82 ± 1.17 (-95 ± 9) %
- CYP2D6 Efficacy [4]: 14.43 ± 1.84 (-95 ± 12) %
- CYP1A2 Efficacy [5]: 3.33 ± 0.9 (-94 ± 12) %

Compound: NS(=O)(=O)C(F)(F)C(F)(F)C(F)(F)C(F)(F)C(F)(F)C(F)(F)C(F)(F)C(F)(F)F [PFOSA]
- IC50 [7, 10]: 0.71 µM
- Luciferase IC50 (half-maximal inhibitory concentration) [2]: Inactive
- IC50 [8, 11]: 64.3 µM
- CYP3A4 IC50 (half-maximal inhibitory concentration) [6]: Inactive
- CYP2D6 IC50 (half-maximal inhibitory concentration) [4]: Inactive
- CYP1A2 IC50 (half-maximal inhibitory concentration) [5]: Inactive

Compound: CSc1ccc2c(c1)N(CCC1CCCCN1C)c1ccccc1S2 (centres unmarked) [Thioridazine hydrochloride]
- Luciferase IC50 (half-maximal inhibitory concentration) [2]: Inactive

Compound: Clc1ccccc1CN1CCc2sccc2C1 [Ticlopidine hydrochloride]
- IC50 [2]: 8.71 µM

Compound: CCCCCCCCCCCCCCCCCC(=O)O.OCCN(CCO)CCO [Triethanolamine stearate]
- CYP2C19 Efficacy (in parenthesis) [1]: 0.42 ± 0.18 (-127 ± 1) %
- IC50 [1]: 0.42 µM
- Luciferase Efficacy (in parenthesis) [2]: 74.82 ± 6.08 (-26 ± 14) %
- IC50 ([2]; read-out: Luciferase IC50 (half-maximal inhibitory concentration)): 74.8 µM
- CYP2C9 Efficacy (in parenthesis) [3]: 1.38 ± 0.34 (-98 ± 6) %
- IC50 [3]: 1.38 µM
- CYP2D6 Efficacy (in parenthesis) [4]: 35.34 ± 0 (-82 ± 6) %
- IC50 [4]: 35.3 µM
- CYP1A2 Efficacy (in parenthesis) [5]: 3.98 ± 2.02 (-97 ± 4) %
- IC50 [5]: 3.98 µM

Compound: CC(CN(C)C)CN1c2ccccc2Sc2ccccc21.CC(CN(C)C)CN1c2ccccc2Sc2ccccc21.O=C(O)C(O)C(O)C(=O)O (centres unmarked) [Trimeprazine tartrate]
- Luciferase IC50 (half-maximal inhibitory concentration) [2]: Inactive

Compound: CCOc1ccccc1OCC1CNCCO1 (centres unmarked) [Viloxazine hydrochloride]
- Luciferase IC50 (half-maximal inhibitory concentration) [2]: Inactive

Compound: Cl[C@H]1[C@H](Cl)[C@@H](Cl)[C@H](Cl)[C@@H](Cl)[C@@H]1Cl [beta-Hexachlorocyclohexane]
- IC50 ([7]; CYP2C9 IC50): 4.17 µM
- Luciferase IC50 [2]: Inactive
- IC50 ([8]; CYP2C19 IC50): 1.96 µM
- CYP2D6 IC50 [4]: Inactive
- IC50 [9]: 1.14 µM

Compound: CC(C)c1nc(CN(C)C(=O)N[C@H](C(=O)N[C@@H](Cc2ccccc2)C[C@H](O)[C@H](Cc2ccccc2)NC(=O)OCc2cncs2)C(C)C)cs1 [ritonavir, reference compound]
- Luciferase IC50 (half-maximal inhibitory concentration) [2]: Inactive

Compound: Diniconazole
- Luciferase IC50 (half-maximal inhibitory concentration) [2]: Inactive

Compound: HMR1171 trifluoroacetate (1:1)
- IC50 [1]: 28.3 µM
- Luciferase IC50 [2]: Inactive
- IC50 [3]: 28.1 µM
- IC50 [4]: 8.87 µM
- CYP1A2 IC50 [5]: Inactive

Compound: Kadethrin
- Luciferase IC50 [2]: Inactive
